Measurements as given in article PMC10552892, “Ebselen oxide and derivatives are new allosteric HER2 inhibitors for HER2‐positive cancers” (Molecular Oncology, 2023).

Tests used:
NCI-N87 [1] = experiment: Proliferation of NCI-N87 cells; type: cell-based, human; settings: ebselen oxide 7–10 μM, AG1478 5 μM
Procedure: Fig. 3 Ebselen oxide inhibits HER2 activation and HER2‐dependent proliferation in gastric and ovarian HER2^+ cancer cells. (A) HER2‐positive NCI‐87 gastric cancer cells were treated with ebselen oxide (0–20 μM) for 24 h, lysed, and analyzed by western blot using anti‐pY1248‐HER2, HER2, and β‐tubulin antibodies. A representative western blot is shown out of 4 independent experiments. (B) HER2‐positive SKOV3 ovarian cancer cells were treated with ebselen oxide (0–10 μM) for 24 h, lysed, and analyzed by western blot using anti‐pY1248‐HER2, HER2, and ezrin antibodies. A western blot is shown (n = 1). (C, D) Proliferation curves of NCI‐N87 gastric (C) or SKOV3 ovarian (D) cancer cells treated with vehicle or 7–10 μM ebselen oxide measured by MTT assay. Data are mean ± SEM (n = 9–12) of three independent experiments.
Supplementary figure 4: NCI-N87 and SKOV3 cancer cell lines are addicted to the HER2 pathway
(A) NCI-N87 cells were treated (+) or not (-) with a non-specific HER2 inhibitor AG1478 (5 µM). Whole cell lysates were analyzed by western blot with pY1248 HER2, HER2 and pERK antibodies.
(B) SKOV3 cells were treated (+) or not (-) with a non-specific HER2 inhibitor AG1478 (5 µM). Whole cell lysates were analyzed by western blot with pY1248 HER2, HER2, pERK or beta-tubulin antibodies.
(C) Proliferation curves of NCI-N87 treated or not with AG1478 (5 µM). Data are mean ± sem (n=4-6). 2- […]

NCI-N87 [2] = experiment: Incucyte proliferation, single agents and combinations, NCI-N87; type: cell-based; settings: Homo sapiens, NCI-N87, 96 h; read-out: Reduction/inhibition of cell proliferation
Procedure: (A–C) Proliferation curves of HER2‐positive (SKBR3, A; BT474, B; NCI‐N87, C) cancer cell lines treated or not with ebselen oxide (10 μM), lapatinib (10–1000 nM), or combination of these agents, as indicated. Proliferation was assessed overtime by Incucyte during 4 days. Data are mean ± SD (n = 8–12) of a representative experiment out of 4 (A), 3 (B), or 2 (C) independent experiments. […] Proliferation was assessed by Incucyte during 4 days. […] Scale bars are […].

[3] = molecular target: T1, JMHER2/FERME interaction (biot-JMHER2 peptide and GST-FERME, N-terminal FERM domain of ezrin) (Homo sapiens, UniProt P04626); experiment: AlphaScreen competition of HER2 juxtamembrane peptide / ezrin FERM domain interaction; type: binding; settings: AlphaScreen, 20 h
T1 construct: purchased Proteogenix
Procedure: Biotinylated peptide derived from HER2 cytosolic juxtamembrane region (JMHER2, […] ) has been synthesized by Proteogenix (Schiltigheim, France). The binding reaction was described previously. Briefly, white 384‐well Optiplates (PerkinElmer, Whalham, MA, USA) were used to prepare GST‐FERME and biotinylated peptide in a binding buffer (PBS, pH 7.4, 5 mM MgCl2, and 0.02% CHAPS). GST‐FERME was incubated with biotinylated‐HER2 for 30 min at room temperature. AlphaScreen® Streptavidin Donor beads (20 μg·mL^−1) and Glutathione AlphaLISA® Acceptor Beads (20 μg·mL^−1) were added to the wells for overnight incubation in the dark and at room temperature. Light signal was detected with the EnVision® multilabel plate reader (PerkinElmer).
Ebselen came out as an interesting hit. Ebselen is a synthetic organoselenium compound with the anti‐inflammatory and antioxidant property that has been evaluated in clinical trials for ischemic stroke and acute hearing loss. However, in vivo, ebselen rapidly reacts with peroxynitrite to form ebselen oxide. […] In addition, using surface plasmon resonance (SPR), we confirmed that both compounds could directly bind to JMHER2 (Fig. 1E,F). […] The slight decrease in HER2 expression was not significant. To examine whether HER2 inhibition by ebselen oxide was dependent on JMHER2/FERME interaction, we transfected HBMEC cells with a previously described glycoprotein D‐tagged HER2 form mutated on the critical amino acids involved in ERM binding (gD‐HER2‐EBM*).

[4] = molecular target: T2, HER2 in heterodimers with EGFR/HER1 (Homo sapiens, UniProt P04626); experiment: Ligand-dependent HER2 activation in HBMECs upon EGF stimulation (western blot); type: cell-based; settings: 10 μM, 50 ng/ml EGF 5 min
T2 construct: in noncancer cells expressing normal levels of HER2; endogenous in cells; host or cells: HBMEC

SKBR3 = experiment: MTT proliferation assay, SKBR3; type: cell-based, human; settings: 10 μM
Procedure: Fig. 2 Ebselen oxide inhibits HER2 activation, cell proliferation, and anchorage‐independent growth of HER2^+ breast cancer cells. […] Blot and quantification of a representative experiment are shown out of 4 (A), 5 (B), or 2 (C) independent experiments. (D–F) Proliferation curves of HER2‐positive (SKBR3, D or BT474, E) or HER2‐negative (MDA‐MB‐231, F) breast cancer cell lines treated with vehicle or 10 μM ebselen oxide assessed by MTT assay. […] (G–I) Anchorage‐independent growth of SKBR3 (G), BT474 (H), or MDA‐MB‐231 (I) cells treated with vehicle or 10 μM ebselen oxide. […] Scale bars are […].

gD-HER2-EBM* = experiment: Western blot of HBMECs overexpressing ERM-binding-motif mutant gD-HER2-EBM*; settings: 5 μM, 24 h, HBMEC
Procedure: Cells were washed with cold PBS and lysed in a buffer containing 1% Triton, 50 mM Tris–HCl pH 8.8, 25 mM NaCl, 1 mM EDTA, 1 mM Na3VO4, 1 mM AEBSF, 10 μg·mL^−1 each of aprotinin/leupeptin/pepstatin or lysed in Laemmli buffer. Proteins were separated by SDS/PAGE and transferred to nitrocellulose (Schleicher & Schuell, Keene, NH, USA). Membranes were blocked for 1 h in TBS/0.1% Tween20/3% BSA and probed overnight with indicated antibodies. Peroxidase‐coupled secondary antibodies were used to reveal antibody binding using the ECL substrate (Pierce, Thermo Fisher Scientific, Waltham, MA, USA) and Fusion FX (Vilber Lourmat, Collégien, France) chemoluminescence acquisition system. Quantifications were done with IMAGEJ software (1.53e) (NIH, USA).
(G, H) Lysates from HBMECs transfected with vectors encoding gD‐tagged wild‐type HER2 (gD‐HER2‐WT) (G) or the mutant generated with alanine and glycine substitutions within the ERM‐binding motif (gD‐HER2‐EBM*) (H) and treated or not during 24 h with 5 μM ebselen oxide were analyzed by western blot using antibodies against activated HER2 (pY1248), HER2, activated ERK (pERK), and ERK. Representative blots and quantification of data are shown where data are mean ± sem [n = 3 (G); n = 2 (H)].

[5] = tested on: HBMECs overexpressing p95 HER2; experiment: Proliferation of HBMECs overexpressing p95 HER2 (Incucyte); settings: 5 μM, Incucyte 5 days
Procedure: 25.10^3 cells/96‐well transfected HBMECs or 9.10^3 cancer cells were seeded and monitored with an Incucyte S3 imaging system (Sartorius, Goettingen, Germany) using 10× objective every 2 h during 5 days. Confluency analyses were performed using the dedicated Incucyte analysis system.
(D–F) Proliferation was assessed by Incucyte during 5 days. Data are mean ± SEM of a representative experiment out of two independent experiments. Two‐way ANOVA followed by Bonferroni's multiple comparison test, ***P < 0.001, ****P < 0.0001.
(A-B) HBMECs transfected with empty vector (pRK5) or vectors encoding gD-HER2 WT, the truncated gD-
Proliferation was assessed by Incucyte during 5 days. Representative micrographs are shown (A).
Representative quantification of the proliferation (B) is shown where data are mean ± sem (n=8-12). Two-way
ANOVA followed byBonferroni’s multiple comparison test, *** P<0.001, **** P<0.0001. Scale bars are 100 µM.
vehicle, 5-10 µM Ebselen oxide or 5 µM AG1478. Proliferation was assessed by MTT assay during 3 days.
Data are mean ± sem (n=3). Two-way ANOVA followed by Bonferroni’s multiple comparison test, * P<0.05 **

NCI-N87 [6] = experiment: Anchorage-independent growth (spheroid assay, ULA plates), NCI-N87; type: cell-based, human; settings: ebselen oxide 10 μM, lapatinib 10 nM, trastuzumab 10 μg·mL−1, alone or combined
Procedure: 5.10^3 cells/24‐well were seeded in a complete medium in ULA plates (Corning® Costar® (Corning, NY, USA) C LS3473‐24EA) in the presence of indicated compounds. Spheroids were imaged 6–8 days later with a phase‐contrast microscope, and their areas were measured using IMAGEJ software.
Proliferation was assessed overtime by Incucyte during 4 days. Data are mean ± SD (n = 8–12) of a representative experiment out of 4 (A), 3 (B), or 2 (C) independent experiments. One‐way ANOVA followed by Sidak multiple comparison test, (*, compared with Vehicle; ° and #, respectively, compared with lapatinib 10 and 1000 nM) ***P < 0.001, ****P < 0.0001. […] Proliferation was assessed by Incucyte during 4 days. Data are mean ± SD (n = 8–12) of a representative experiment out of two independent experiments. […] Images of a representative experiment out of 3 (G) or 4 (H) independent experiments and quantification of the colony total area are shown where data are mean ± SEM. One‐way ANOVA followed by multiple comparison test, *P < 0.05, **P < 0.01. Scale bars are 100 μM.

[7] = molecular target: T3, JMHER2 (peptide derived from the cytosolic juxtamembrane sequence of HER2) (Homo sapiens, UniProt P04626); experiment: Surface plasmon resonance binding to immobilized HER2 juxtamembrane peptide; settings: analyte 5 or 10 μM, 60 s injection
T3 construct: purchased Proteogenix
Procedure: Interaction was performed on a BIAcore T200 instrument BIAcore (Cytiva Life Sciences, Marlborough, MA, USA); GE Healthcare (Little Chalfont, UK). […] Ebselen or ebselen oxide was used as an analyte and injected at 5 or 10 μM at a flow rate of 25 μL·min^−1 for 60 s.

[8] = molecular target: T4, HER2 (pY1248) in MDA-MB-231 (Homo sapiens, UniProt P04626); experiment: HER2 activation in MDA-MB-231 cells, western/dot blot; type: cell-based; settings: MDA-MB-231, low HER2 expression
T4 construct: host or cells: MDA-MB-231
T4 sequence (P04626 23-1255): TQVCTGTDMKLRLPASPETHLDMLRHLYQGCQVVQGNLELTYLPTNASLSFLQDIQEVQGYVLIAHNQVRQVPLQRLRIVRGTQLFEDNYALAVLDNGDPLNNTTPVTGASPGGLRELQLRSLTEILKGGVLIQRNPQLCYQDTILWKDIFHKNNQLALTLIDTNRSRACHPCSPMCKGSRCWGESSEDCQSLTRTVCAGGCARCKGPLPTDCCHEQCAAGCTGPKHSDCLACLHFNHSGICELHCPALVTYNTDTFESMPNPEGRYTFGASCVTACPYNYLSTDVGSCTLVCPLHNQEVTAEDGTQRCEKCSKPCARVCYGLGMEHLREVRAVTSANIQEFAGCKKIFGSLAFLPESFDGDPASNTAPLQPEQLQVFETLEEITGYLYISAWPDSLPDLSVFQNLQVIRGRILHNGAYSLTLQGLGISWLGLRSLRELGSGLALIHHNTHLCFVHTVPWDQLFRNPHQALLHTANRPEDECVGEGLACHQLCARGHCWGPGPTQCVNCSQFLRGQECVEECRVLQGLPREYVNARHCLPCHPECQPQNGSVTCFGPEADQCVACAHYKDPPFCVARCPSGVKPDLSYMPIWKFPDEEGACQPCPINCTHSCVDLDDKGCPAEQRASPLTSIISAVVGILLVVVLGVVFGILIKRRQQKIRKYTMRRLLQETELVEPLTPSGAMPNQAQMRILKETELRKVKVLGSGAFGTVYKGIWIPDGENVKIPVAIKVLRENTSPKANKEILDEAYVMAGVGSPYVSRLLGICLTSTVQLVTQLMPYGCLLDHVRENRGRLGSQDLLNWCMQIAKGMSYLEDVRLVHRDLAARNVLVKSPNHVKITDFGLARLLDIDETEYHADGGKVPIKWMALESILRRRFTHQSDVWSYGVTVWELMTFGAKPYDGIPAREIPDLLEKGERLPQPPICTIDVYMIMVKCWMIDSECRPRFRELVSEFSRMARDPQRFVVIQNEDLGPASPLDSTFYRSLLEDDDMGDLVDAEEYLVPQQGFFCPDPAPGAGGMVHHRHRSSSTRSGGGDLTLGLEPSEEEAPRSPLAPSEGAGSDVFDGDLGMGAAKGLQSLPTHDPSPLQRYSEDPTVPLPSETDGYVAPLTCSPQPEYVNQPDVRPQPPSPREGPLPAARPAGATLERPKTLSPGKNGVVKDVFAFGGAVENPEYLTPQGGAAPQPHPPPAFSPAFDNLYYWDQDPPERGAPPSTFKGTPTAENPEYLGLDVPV

T2 sequence (P04626 23-1255, one chain of several): as the sequence (P04626 23-1255) above

O=C1c2ccccc2[Se](=O)N1c1ccccc1 (stereo not drawn) [Ebselen oxide, ebselen oxide]
Effect on proliferation (NCI-N87 [1]): reduced proliferation | inhibition at 10 µM (NCI-N87 [2]): 45% | IC50 [3]: 634 nM | EC50 ([3]; read-out: EC50, μM (inhibition of HER2-FERME interaction)): 0.634 µM | Physiological activation of HER2 in heterodimers and downstream AKT and ERK activation upon EGF [4]: did not alter | Reduction of proliferation rate (SKBR3): 35% | Downstream activation of ERK induced by gD-HER2-EBM* overexpression (gD-HER2-EBM*): did not reduce | Phosphorylation of gD-HER2-EBM* (gD-HER2-EBM*): did not reduce | Inhibition of cell proliferation induced by overexpression of p95 HER2 [5]: almost totally inhibited | Reduction of anchorage-independent growth (spheroid assay) (NCI-N87 [6]): 23% | Direct binding to JMHER2 (SPR) [7]: directly bind | Effect on HER2 activation [8]: no effect
